# Earlier results in patent publication EP1030653B1, “DINITROANILINE LIPOSOMAL FORMULATIONS AND PROCESSES FOR THEIR PREPARATION” (INSTITUTO NACIONAL DE ENGENHARIA E TECNOLOGIA …, priority 1998, dated 2000).
# Tested on: Leishmania sp
smiles,measurement,setting,value
CC(=O)N(O)CCCCCNC(=O)CCC(=O)N(O)CCCCCNC(=O)CCC(=O)N(O)CCCCCN [desferrioxiamine],efficiency,literature (32),44%
CCC1=C(C[C@H]2NCCc3cc(OC)c(OC)cc32)C[C@H]2c3cc(OC)c(OC)cc3CCN2C1 [dehydroemetine],cure,,67%
CCCN(CCC)c1c([N+](=O)[O-])cc(C(F)(F)F)cc1[N+](=O)[O-] [trifluralin],activity against the visceral forms,"topical route, literature (12)",no activity
CN(Cc1cnc2nc(N)nc(N)c2n1)c1ccc(C(=O)N[C@@H](CCC(=O)O)C(=O)O)cc1 [methotrexate],reduction on the infection level,"literature (10, 11)",85%
N=C(N)c1ccc(OCCCCCOc2ccc(C(=N)N)cc2)cc1 [pentamidine],efficacy (in words),literature,less efficacy than antimonial derivatives
